What was measured:
human TLR7 = biological target: T1, human TLR7 (Homo sapiens, UniProt Q9NYK1); experiment: TLR7 NFκB-luc cellular reporter assay in transiently transfected HEK293 cells; format: cell-based; conditions: lowest effective concentration; HEK293 cells transfected with wild type TLR7 and NFκB-luc reporter, 6 h incubation
T1 construct: expressed in transfected cells; host or cells: HEK293
T1 sequence (Q9NYK1 27-1049): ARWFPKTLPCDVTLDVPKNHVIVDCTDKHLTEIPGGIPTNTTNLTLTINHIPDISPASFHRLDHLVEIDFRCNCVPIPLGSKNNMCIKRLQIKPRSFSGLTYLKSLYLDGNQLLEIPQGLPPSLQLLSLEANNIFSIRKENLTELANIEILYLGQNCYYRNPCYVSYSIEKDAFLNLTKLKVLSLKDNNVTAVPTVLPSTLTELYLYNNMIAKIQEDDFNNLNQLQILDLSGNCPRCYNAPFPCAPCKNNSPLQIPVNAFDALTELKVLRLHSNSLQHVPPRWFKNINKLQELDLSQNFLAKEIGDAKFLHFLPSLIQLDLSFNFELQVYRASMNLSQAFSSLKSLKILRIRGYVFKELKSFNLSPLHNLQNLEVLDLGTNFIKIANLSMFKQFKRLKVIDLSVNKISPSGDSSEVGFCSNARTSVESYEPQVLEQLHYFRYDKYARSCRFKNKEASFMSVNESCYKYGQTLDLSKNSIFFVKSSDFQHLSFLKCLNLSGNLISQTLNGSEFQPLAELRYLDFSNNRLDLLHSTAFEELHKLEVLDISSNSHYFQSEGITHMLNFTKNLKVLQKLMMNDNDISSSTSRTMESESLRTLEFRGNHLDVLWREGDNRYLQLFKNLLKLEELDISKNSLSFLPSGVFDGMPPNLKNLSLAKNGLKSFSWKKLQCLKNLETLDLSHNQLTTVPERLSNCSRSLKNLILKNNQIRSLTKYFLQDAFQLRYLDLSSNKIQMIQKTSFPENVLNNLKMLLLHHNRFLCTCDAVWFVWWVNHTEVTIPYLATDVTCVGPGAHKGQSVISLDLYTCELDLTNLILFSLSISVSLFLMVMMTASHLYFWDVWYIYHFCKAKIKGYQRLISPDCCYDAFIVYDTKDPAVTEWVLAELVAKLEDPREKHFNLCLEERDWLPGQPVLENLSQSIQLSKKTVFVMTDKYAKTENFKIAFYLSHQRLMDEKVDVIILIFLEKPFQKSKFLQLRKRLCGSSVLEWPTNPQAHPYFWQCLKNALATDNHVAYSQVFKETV
Experimental: (§1) The ability of compounds to activate human TLR7 and/or TLR8 was assessed in a cellular reporter assay using HEK293 cells transiently transfected with a TLR7 or TLR8 expression vector and NFκB-luc reporter construct. In one instance, the TLR expression construct expresses the respective wild type sequence or a mutant sequence comprising a deletion in the second leucine-rich repeat of the TLR.
(§2) HEK293 cells were grown in culture medium (DMEM supplemented with 10% FCS and 2 mM Glutamine). For transfection of cells in 10 cm dishes, cells were detached with Trypsin-EDTA, transfected with a mix of CMV-TLR7 or TLR8 plasmid (750 ng), NFκB-luc plasmid (375 ng) and a transfection reagent and incubated 24 h at 37° C. in a humidified 5% C02 atmosphere. Transfected cells were then detached with Trypsin-EDTA, washed in PBS and re-suspended in medium to a density of 1.67×10^5 cells/mL. Thirty microliters of cells were then dispensed into each well in 384-well plates, where 10 μL of compound in 4% DMSO was already present. Following 6 h incubation at 37° C., 5% CO2, the luciferase activity was determined by adding 15 μl of STEADY LITE PLUS substrate (PERKIN ELMER) to each well and readout performed on a VIEWLUX ULTRAHTS microplate imager (PERKIN ELMER). Dose response curves were generated from measurements performed in quadruplicates. Lowest effective concentrations (LEC) values, defined as the concentration that induces an effect which is at least two-fold above the standard deviation of the assay, were determined for each compound.

human TLR8 = biological target: T2, human TLR8 (Homo sapiens, UniProt Q9NR97); experiment: TLR8 NFκB-luc cellular reporter assay in transiently transfected HEK293 cells; format: cell-based; conditions: lowest effective concentration; HEK293 cells transfected with wild type TLR8 and NFκB-luc reporter, 6 h incubation
T2 construct: expressed in transfected cells; host or cells: HEK293
T2 sequence (Q9NR97 27-1041): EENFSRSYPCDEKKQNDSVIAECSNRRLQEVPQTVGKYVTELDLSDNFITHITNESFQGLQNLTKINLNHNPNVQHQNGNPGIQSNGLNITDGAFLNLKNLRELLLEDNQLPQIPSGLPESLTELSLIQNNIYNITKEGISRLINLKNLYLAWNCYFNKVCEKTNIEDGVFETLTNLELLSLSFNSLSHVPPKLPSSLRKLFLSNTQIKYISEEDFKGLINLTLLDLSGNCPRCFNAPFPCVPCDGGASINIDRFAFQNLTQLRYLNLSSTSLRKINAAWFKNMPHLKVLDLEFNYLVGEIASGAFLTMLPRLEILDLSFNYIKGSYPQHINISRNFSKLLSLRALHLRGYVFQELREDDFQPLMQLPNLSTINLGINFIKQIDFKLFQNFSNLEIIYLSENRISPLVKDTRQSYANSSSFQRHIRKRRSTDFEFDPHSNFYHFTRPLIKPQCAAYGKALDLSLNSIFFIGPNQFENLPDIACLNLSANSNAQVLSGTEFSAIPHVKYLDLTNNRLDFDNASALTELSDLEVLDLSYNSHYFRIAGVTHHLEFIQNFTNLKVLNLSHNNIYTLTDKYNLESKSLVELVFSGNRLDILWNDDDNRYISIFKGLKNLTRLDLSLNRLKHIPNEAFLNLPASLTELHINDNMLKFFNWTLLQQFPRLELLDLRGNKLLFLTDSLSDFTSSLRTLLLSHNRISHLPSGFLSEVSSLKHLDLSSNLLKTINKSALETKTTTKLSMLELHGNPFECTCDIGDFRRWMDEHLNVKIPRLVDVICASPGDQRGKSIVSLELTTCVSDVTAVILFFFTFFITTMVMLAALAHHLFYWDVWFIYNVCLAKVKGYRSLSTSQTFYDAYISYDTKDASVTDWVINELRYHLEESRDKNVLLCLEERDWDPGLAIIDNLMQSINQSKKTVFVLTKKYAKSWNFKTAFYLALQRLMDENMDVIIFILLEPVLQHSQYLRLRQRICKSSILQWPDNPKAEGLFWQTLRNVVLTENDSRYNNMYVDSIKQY
Experimental: as §1, §2

Row | hTLR7-wt (LEC) (human TLR7) [µM] | hTLR8-wt (LEC) (human TLR8) [µM] | Compound
1 | > 100 | 0.41 | CCCC[C@H](CO)Nc1nc(N)nc2c(F)c(F)ccc12 [Compound 19, (R)-2-((2-amino-7,8-difluoroquinazolin-4-yl)amino)hexan-1-ol]
2 | > 100 | 0.35 | CCCC[C@H](CO)Nc1nc(N)nc2cccc(C3CC3)c12 [Compound 1, (R)-2-((2-amino-5-cyclopropylquinazolin-4-yl)amino)hexan-1-ol]
3 | 3.36 | 0.35 | CCCC[C@H](CO)Nc1nc(N)nc2cc(C(F)(F)F)ccc12 [Compound 24, (R)-2-((2-amino-7-(trifluoromethyl)quinazolin-4-yl)amino)hexan-1-ol]
4 | > 100 | 0.07 | CCCC[C@H](CO)Nc1nc(N)nc2cccc(Cl)c12 [Compound 15, (R)-2-((2-amino-5-chloroquinazolin-4-yl)amino)hexan-1-ol]
5 | > 25 | 5.75 | CCC[C@H](CO)Nc1nc(N)nc2c(C)cccc12 [Compound 6, (R)-2-((2-amino-8-methylquinazolin-4-yl)amino)pentan-1-ol]
6 | 29.4 | 0.04 | CCCC[C@H](CO)Nc1nc(N)nc2cc(F)ccc12 [Compound 13, (R)-2-((2-amino-7-fluoroquinazolin-4-yl)amino)hexan-1-ol]
7 | > 100 | 3.89 | CCCC[C@H](CO)Nc1nc(N)nc2cc(C(=O)N(C)C)ccc12 [Compound 25, (R)-2-amino-4-((1-hydroxyhexan-2-yl)amino)-N,N-dimethylquinazoline-7-carboxamide]
8 | 11.5 | 0.11 | CCCC[C@H](CO)Nc1nc(N)nc2cc(C)ccc12 [Compound 14, (R)-2-((2-amino-7-methylquinazolin-4-yl)amino)hexan-1-ol]
9 | > 25 | 0.38 | CCCC[C@H](CO)Nc1nc(N)nc2cc(-c3nnco3)ccc12 [Compound 5, (R)-2-((2-amino-7-(1,3,4-oxadiazol-2-yl)quinazolin-4-yl)amino)hexan-1-ol]
10 | > 25 | 3.27 | CCC[C@H](CO)Nc1nc(N)nc2c(F)cccc12 [Compound 10, (R)-2-((2-amino-8-fluoroquinazolin-4-yl)amino)pentan-1-ol]
11 | > 25 | 2.72 | CCCC[C@H](CO)Nc1nc(N)nc2c(Cl)cccc12 [Compound 8, (R)-2-((2-amino-8-chloroquinazolin-4-yl)amino)hexan-1-ol]
12 | > 100 | 0.57 | CCCC[C@H](CO)Nc1nc(N)nc2cc(C(=O)OC)ccc12 [Compound 18, Methyl (R)-2-amino-4-((1-hydroxyhexan-2-yl)amino)quinazoline-7-carboxylate]
13 | > 50 | 0.7 | CSCC[C@H](CO)Nc1nc(N)nc2cccc(F)c12 [Compound 20, (R)-2-((2-amino-5-fluoroquinazolin-4-yl)amino)-4-(methylthio)butan-1-ol]
14 | > 100 | 0.19 | CCCC[C@H](CO)Nc1nc(N)nc2cccc(C)c12 [Compound 16, (R)-2-((2-amino-5-methylquinazolin-4-yl)amino)hexan-1-ol]
15 | > 100 | 0.57 | CCCC[C@H](CO)Nc1nc(N)nc2c(C)ccc(F)c12 [Compound 26, (R)-2-((2-amino-5-fluoro-8-methylquinazolin-4-yl)amino)hexan-1-ol]
16 | 1.71 | 0.09 | CC[C@H](C)[C@H](CO)Nc1nc(N)nc2cccc(F)c12 [Compound 21, (2R,3S)-2-((2-amino-5-fluoroquinazolin-4-yl)amino)-3-methylpentan-1-ol]
17 | 11.3 | 0.39 | CCCC[C@H](CO)Nc1nc(N)nc2cccc(OC)c12 [Compound 12, (R)-2-((2-amino-5-methoxyquinazolin-4-yl)amino)hexan-1-ol]
18 | > 25 | 0.64 | CCCC[C@H](COC(=O)C(C)C)Nc1nc(N)nc2c(C)cccc12 [Compound 11, (R)-2-((2-amino-8-methylquinazolin-4-yl)amino)hexyl isobutyrate]
19 | > 100 | 0.66 | CCCC[C@H](CO)Nc1nc(N)nc2cccc(C(F)(F)F)c12 [Compound 3, (R)-2-((2-amino-5-(trifluoromethyl)quinazolin-4-yl)amino)hexan-1-ol]
20 | > 50 | 3.74 | CCCC[C@H](CO)Nc1nc(N)nc2c(OC)cccc12 [Compound 17, (R)-2-((2-amino-8-methoxyquinazolin-4-yl)amino)hexan-1-ol]
21 | 6.24 | 0.04 | CCCC[C@H](CO)Nc1nc(N)nc2cc(F)cc(F)c12 [Compound 23, (R)-2-((2-amino-5,7-difluoroquinazolin-4-yl)amino)hexan-1-ol]
22 | > 25 | 0.11 | CCCC[C@H](CO)Nc1nc(N)nc2c(F)cccc12 [Compound 9, (R)-2-((2-amino-8-fluoroquinazolin-4-yl)amino)hexan-1-ol]
23 | 27.7 | 0.07 | CCCC[C@H](CO)Nc1nc(N)nc2cccc(F)c12 [Compound 2, (R)-2-((2-amino-5-fluoroquinazolin-4-yl)amino)hexan-1-ol]
24 | > 25 | 0.46 | CCCC[C@H](CO)Nc1nc(N)nc2c(C)cccc12 [Compound 7, (R)-2-((2-amino-8-methylquinazolin-4-yl)amino)hexan-1-ol]
25 | > 100 | 0.14 | CCCC[C@H](CO)Nc1nc(N)nc2cc(C#N)ccc12 [Compound 4, (R)-2-amino-4-((1-hydroxyhexan-2-yl)amino)quinazoline-7-carbonitrile]
